Source: patent publication US7531482B2, “Thieno-pyrimidine compounds having fungicidal activity” (Dow AgroSciences LLC, priority 2005, dated 2009)
Where two headings read alike, the source gives them in different places.

Key:
Type in all cases: in vivo
[1] = system: Mycosphaerella graminicola=Septoria tritici; experiment: Speckled Leaf Blotch of Wheat (SEPTTR) whole-plant disease control test; details: for pest or weed control at 75 ppm: Mycosphaerella, foliar, read-out: SEPTTR disease control
Colletotricum lagenarium = experiment: Cucumber Anthracnose (COLLLA) whole-plant disease control test; details: Cucumis sativus, foliar, read-out: COLLLA disease control
[2] = system: Puccinia recondita tritici; experiment: Leaf Rust of Wheat (PUCCRT) whole-plant disease control test; details: for pest or weed control at 200 ppm: Puccinia recondita, foliar, read-out: PUCCRT disease control
Phytophthora infestans = experiment: whole plant or invertebrate; details: inoculated one day after treatment; for pest or weed control at 200 ppm: Phytophthora infestans, in Solanum lycopersicum, foliar, read-out: PHYTIN disease control, 200 ppm applied to foliage of tomato
Erysiphe cichoracaerum = experiment: Cucumber Powdery Mildew (ERYSCI) whole-plant disease control test; details: Erysiphe, foliar, read-out: ERYSCI disease control
Leptosphaeria nodorum = experiment: Glume Blotch of Wheat (LEPTNO) whole-plant disease control test; details: Parastagonospora nodorum, foliar; for pest or weed control at 200 ppm: read-out: LEPTNO disease control; for pest or weed control at 75 ppm: 75 ppm (footnote b), wheat foliage
[3] = system: Magnaporthe grisea=Pyricularia oryzae; experiment: whole plant or invertebrate; details: for pest or weed control at 200 ppm / pest or weed control at 8.3 ppm: Pyricularia oryzae, foliar; for pest or weed control at 200 ppm: read-out: PYRIOR disease control, 200 ppm applied to foliage of rice; for pest or weed control at 8.3 ppm: read-out: PYRIOR disease control, 8.3 ppm (footnote c), rice foliage
[4] = 75 ppm applied to foliage of wheat
[5] = 200 ppm applied to foliage of cucumber, inoculated one day after treatment
[6] = 200 ppm applied to foliage of wheat, inoculated one day after treatment
[7] = inoculated one day after treatment

| SMILES | pest or weed control at 75 ppm [1, 4] [%] | pest or weed control at 200 ppm (Colletotricum lagenarium; [5]) [%] | pest or weed control at 200 ppm [2, 6] [%] | pest or weed control at 200 ppm (Phytophthora infestans) [%] | pest or weed control at 200 ppm (Erysiphe cichoracaerum; [5]) [%] | pest or weed control at 200 ppm (Leptosphaeria nodorum; [6]) [%] | pest or weed control at 200 ppm [3, 7] [%] | pest or weed control at 75 ppm [1] [%] | pest or weed control at 200 ppm (Colletotricum lagenarium) [%] | pest or weed control at 200 ppm [2] [%] | pest or weed control at 200 ppm (Erysiphe cichoracaerum) [%] | pest or weed control at 200 ppm (Leptosphaeria nodorum) [%] | SEPTTR disease control [1, 4] | PUCCRT disease control [2, 6] | PHYTIN disease control (Phytophthora infestans; 200 ppm applied to foliage of tomato) | PYRIOR disease control ([3]; 200 ppm applied to foliage of rice, inoculated one day after treatment) | pest or weed control at 75 ppm (Leptosphaeria nodorum) [%] | pest or weed control at 8.3 ppm [3] [%] |
| --- | --- | --- | --- | --- | --- | --- | --- | --- | --- | --- | --- | --- | --- | --- | --- | --- | --- | --- |
| Cc1cccc(Oc2ccc(CCNc3ncnc4scc(Cl)c34)cc2)n1 [Compound 85] | 80 to 100 | 50 to 79 | 80 to 100 | 80 to 100 | 80 to 100 | 80 to 100 | 80 to 100 | – | – | – | – | – | – | – | – | – | – | – |
| Clc1csc2ncnc(NCCc3ccc(Oc4ncnc5scnc45)cc3)c12 [Compound 86] | 80 to 100 | 0 to 49 | 80 to 100 | 80 to 100 | 50 to 79 | 50 to 79 | 50 to 79 | – | – | – | – | – | – | – | – | – | – | – |
| COc1cc(Oc2ccc(CCNc3ncnc4scc(Cl)c34)cc2)c(Br)cn1 [Compound 87] | 50 to 79 | 0 to 49 | 80 to 100 | 50 to 79 | 80 to 100 | 50 to 79 | 80 to 100 | – | – | – | – | – | – | – | – | – | – | – |
| COc1cc(C(F)(F)F)cc(Oc2ccc(CC(C)Nc3ncnc4scc(Cl)c34)cc2)n1 (centres unmarked) [Compound 88] | 50 to 79 | 50 to 79 | 80 to 100 | 0 to 49 | 80 to 100 | 0 to 49 | 80 to 100 | – | – | – | – | – | – | – | – | – | – | – |
| Clc1csc2ncnc(NCCc3ccc(Oc4cccc(-n5cccn5)n4)cc3)c12 [Compound 89] | 50 to 79 | 0 to 49 | 80 to 100 | 0 to 49 | 80 to 100 | 80 to 100 | 80 to 100 | – | – | – | – | – | – | – | – | – | – | – |
| CS(=O)(=O)c1cccc(Oc2ccc(CCNc3ncnc4scc(Cl)c34)cc2)n1 [Compound 91] | 0 to 49 | 0 to 49 | 80 to 100 | 80 to 100 | 50 to 79 | 80 to 100 | 80 to 100 | – | – | – | – | – | – | – | – | – | – | – |
| CC(Cc1ccc(Oc2c(Cl)cnc(C(F)(F)F)c2Cl)cc1)Nc1ncnc2scc(Cl)c12 (centres unmarked) [Compound 94] | 0 to 49 | 50 to 79 | 80 to 100 | 0 to 49 | 50 to 79 | 0 to 49 | 80 to 100 | – | – | – | – | – | – | – | – | – | – | – |
| CS(=O)(=O)c1cc(Oc2ccc(CCNc3ncnc4scc(Cl)c34)cc2)ccn1 [Compound 95] | 50 to 79 | 50 to 79 | 80 to 100 | 80 to 100 | 0 to 49 | 80 to 100 | 80 to 100 | – | – | – | – | – | – | – | – | – | – | – |
| N#CCc1cccc(Oc2ccc(CCNc3ncnc4scc(Cl)c34)cc2)n1 [Compound 97] | – | – | – | 80 to 100 | – | – | 80 to 100 | 50 to 79 | 50 to 79 | 80 to 100 | 0 to 49 | 80 to 100 | – | – | – | – | – | – |
| O=C(Nc1ccc(CCNc2ncnc3scc(Cl)c23)cc1)c1ccnc(Cl)c1 [Compound 99, 2-Chloro-N-{4-[2-(5-chlorothieno[2,3,-d]pyrimidin-4-ylamino)ethyl]phenyl}isonicotinamide] | 0 to 49 | 50 to 79 | 80 to 100 | 50 to 79 | 0 to 49 | 0 to 49 | 80 to 100 | – | – | – | – | – | – | – | – | – | – | – |
| N#Cc1nc(F)c(F)c(Oc2ccc(CCNc3ncnc4scc(Cl)c34)cc2)c1F [Compound 103] | 0 to 49 | 50 to 79 | 50 to 79 | 0 to 49 | 0 to 49 | 50 to 79 | 50 to 79 | – | – | – | – | – | – | – | – | – | – | – |
| Clc1ccc(COc2ccc(CCNc3ncnc4scc(Cl)c34)cc2)cn1 [Compound 104] | 50 to 79 | 50 to 79 | 80 to 100 | 0 to 49 | 0 to 49 | 0 to 49 | 80 to 100 | – | – | – | – | – | – | – | – | – | – | – |
| FC(F)(F)c1ccc(COc2ccc(CCNc3ncnc4scc(Cl)c34)cc2)o1 [Compound 105] | 0 to 49 | 0 to 49 | 50 to 79 | 0 to 49 | 0 to 49 | 0 to 49 | 80 to 100 | – | – | – | – | – | – | – | – | – | – | – |
| CC(C)OC(=O)c1cnc(Oc2ccc(CCNc3ncnc4scc(Cl)c34)cc2)c(Cl)c1 [Compound 106] | 50 to 79 | 0 to 49 | 80 to 100 | 0 to 49 | 0 to 49 | 0 to 49 | 80 to 100 | – | – | – | – | – | – | – | – | – | – | – |
| CC(C)c1cncnc1COc1ccc(CCNc2ncnc3scc(Cl)c23)cc1 [Compound 107] | 50 to 79 | 0 to 49 | 80 to 100 | 80 to 100 | 0 to 49 | 0 to 49 | 80 to 100 | – | – | – | – | – | – | – | – | – | – | – |
| Clc1csc2ncnc(NCCc3ccc(Oc4ncnc5scc(Cl)c45)cc3)c12 [Compound 108] | – | 0 to 49 | – | – | 0 to 49 | 0 to 49 | – | – | – | – | – | – | ** (** = 50–79 percent control) | * (* = 0–49 percent control) | * (* = 0–49 percent control) | ** (** = 50–79 percent control) | – | – |
| Fc1nc(F)c(F)c(Oc2ccc(CCNc3ncnc4scc(Cl)c34)cc2)c1F [Compound 110] | 50 to 79 | 50 to 79 | 80 to 100 | 0 to 49 | 80 to 100 | – | – | – | – | – | – | – | – | – | – | – | 50 to 79 | 80 to 100 |
| Clc1csc2ncnc(NCCc3ccc(Oc4nc(Br)ns4)cc3)c12 [Compound 112] | 0 to 49 | 50 to 79 | 80 to 100 | 50 to 79 | 0 to 49 | 0 to 49 | 80 to 100 | – | – | – | – | – | – | – | – | – | – | – |
| Cc1nnsc1Oc1ccc(CCNc2ncnc3scc(Cl)c23)cc1 [Compound 114] | 50 to 79 | 50 to 79 | 80 to 100 | 80 to 100 | 80 to 100 | 50 to 79 | 80 to 100 | – | – | – | – | – | – | – | – | – | – | – |
| Clc1nsc(Oc2ccc(CCNc3ncnc4scc(Cl)c34)cc2)n1 [Compound 120] | 0 to 49 | 0 to 49 | 80 to 100 | 50 to 79 | 0 to 49 | – | – | – | – | – | – | – | – | – | – | – | 0 to 49 | 50 to 79 |
| COc1nsc(Oc2ccc(CCNc3ncnc4scc(Cl)c34)cc2)n1 [Compound 122] | 50 to 79 | 50 to 79 | 80 to 100 | 50 to 79 | 80 to 100 | – | – | – | – | – | – | – | – | – | – | – | 0 to 49 | 80 to 100 |
| COc1cc(CCNc2ncnc3scc(Cl)c23)ccc1Oc1cc(C(F)(F)F)ccn1 [Compound 124, (5-Chlorothieno[2,3-d]pyrimidin-4-yl)-{2-[3-methoxy-4-(4-trifluoromethylpyridin-2-yloxy)phenyl]ethyl}amine] | 0 to 49 | 50 to 79 | 80 to 100 | 50 to 79 | 80 to 100 | – | – | – | – | – | – | – | – | – | – | – | 0 to 49 | 80 to 100 |
| N#Cc1nccnc1Oc1ccc(CCNc2ncnc3scc(Cl)c23)cc1 [Compound 125] | 50 to 79 | 0 to 49 | 80 to 100 | 50 to 79 | 50 to 79 | – | – | – | – | – | – | – | – | – | – | – | 0 to 49 | 80 to 100 |
